This passage reports TGI results from PubChem BioAssay (NCI).

Common to all, as to test: growth of human tumour cells (NCI), 48 h
Test [1] relates to BT-549 breast.
Test [2] deals with COLO 205 colon.
Test [3] relates to OVCAR-3 ovarian.
The test system of test [4] is HL-60(TB) leukemia.
Test [5] has as its system RPMI-8226 leukemia.
The subject of test [6] is A498 renal.
For test [7], the system named is SNB-75 CNS.
The test system of test [8] is U251 CNS.
Test [9] concerns MDA-N.
In test [10] the test system is MALME-3M melanoma.
For test [11], the system named is SNB-19 CNS.
Test [12] has as its system CAKI-1 renal.

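48-hour exposure; five concentrations; linearly interpolated endpoints. At the TGI there is no net growth.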

Consider `CC(C)C(Cl)CCC(C)(Cl)C(=O)CBr` (stereo not given), for which the TGI in test [1] is 22.6 µM; in test [2], 12 µM; in test [3], 16.4 µM; in test [4] it was above 100 µM; in [5], 2.52 µM; in test [6], 30.3 µM. Besides, the TGI was 32.3 µM in test [7]; 25.8 µM in test [8]; 7.25 µM in test [9]; 23 µM in test [10]; above 67.3 µM in test [11]; 14.3 µM in [12].
In the case of `C=C1CC[C@@H](CCC2CCC3(OC2)O[C@]2(O)CC[C@@]3(C)OC2(C)C)C(C)(C)[C@H]1C/C=C1\CCOC1=O` (stereo not given in full), the TGI stood at 49.1 µM in test [1]; 35.3 µM in test [2]; 54.8 µM in test [3]; 17 µM in test [4]; 31.2 µM in test [5]; 34.9 µM in test [6]. Besides, the TGI in test [7] was above 92.4 µM; in [8], 43.5 µM; in test [9] it was above 100 µM; in test [10], 55.2 µM; in test [11] it was above 100 µM; in [12] it was above 88.1 µM.
`Cc1ccc(S[C@@](C=O)(NC(=O)OCc2ccccc2)C(F)(F)F)cc1`: the TGI in test [1] is 81.8 µM; in test [2], 35.5 µM; in test [3], above 100 µM; in [4] it was 41.8 µM; in test [5] it was 57.2 µM; in [6] it was above 100 µM. Moreover, the TGI is 80 µM in [7]; 40.7 µM in test [8]; 58.5 µM in [9]; 78.3 µM in test [10]; 62.4 µM in [11]; 63.8 µM in test [12].
With `Cc1ccc(OCC2OC(n3cnc4c(Cl)nc(Nc5cc(Cl)cc(Cl)c5)nc43)CC2Oc2ccc(C)cc2)cc1` (stereo not given), the TGI in test [1], in test [2], in test [3], in test [4], in test [5] and in test [6] was above 100 µM throughout. Further, the TGI in [7], in test [8], in test [9], in test [10], in test [11] and in test [12] was above 100 µM throughout.
For the molecule `C=CCC(CCC(C)=O)(C(=O)OCC)C(=O)OCC`, the TGI in test [1], in test [2], in test [3], in [4], in test [5] and in test [6] was above 100 µM each time. Moreover, the TGI in test [7], in [8], in [9], in [10], in test [11] and in test [12] was above 100 µM throughout.
On to `NC1=NC2(COC(c3ccccc3)(c3ccccc3)c3ccccc3)OC(COC(c3ccccc3)(c3ccccc3)c3ccccc3)C(O)C2O1` (stereo not given), for which the TGI was above 100 µM in test [1]; above 100 µM in test [2]; above 100 µM in test [3]; above 100 µM in [4]; 52.4 µM in [5]; above 100 µM in test [6]. The TGI was 4.47 µM in test [7]; above 100 µM in [8]; above 100 µM in [9]; above 100 µM in test [10]; above 100 µM in [11]; above 100 µM in test [12].
For `S=C1Cc2c(-c3ccccc3)cc(-c3cccc(Cl)c3)nc2-c2ccccc2N1`, the TGI in [1] is 19.5 µM; in [2], above 100 µM; in test [3], 25.9 µM; in test [4], 54.9 µM; in test [5], 56.2 µM; in [6], 10.4 µM. The TGI in [7] is 5.86 µM; in test [8], 3.31 µM; in test [9] it was 26.5 µM; in test [10], above 24.5 µM; in test [11], 7.97 µM; in test [12] it was 9.23 µM.
For `COc1ccc(OC)c2sc(N3C(=O)/C(=C/c4cccc(Oc5ccccc5)c4)N=C3c3ccccc3)nc12`, the TGI in [1], in test [2], in [3], in [4], in [5] and in test [6] was above 100 µM throughout. Besides, the TGI in [7], in test [8], in test [9], in test [10], in [11] and in test [12] was above 100 µM each time.
With `CCCCCCCCCCCCCCCCCCNc1ccn(C2OC(COP(=O)(O)OCC3OC(n4ccc(N)nc4=O)C(O)C3O)C(O)C2O)c(=O)n1` (stereo not given), the TGI is above 87.9 µM in test [1]; above 100 µM in [2]; above 100 µM in test [3]; above 100 µM in test [4]; above 100 µM in test [5]; above 100 µM in test [6]. Further, the TGI in [7], in test [8], in test [9], in test [10], in test [11] and in test [12] was above 100 µM each time.
For the molecule `Cc1c(C)c2c(c(N)c1C#N)C(=O)N(Cc1ccc(S(N)(=O)=O)cc1)C2=O`, the TGI in test [1] is above 100 µM; in test [2], above 100 µM; in test [3], above 63.2 µM; in test [4], above 100 µM; in test [5], above 100 µM; in [6] it was above 70.6 µM. Moreover, the TGI in [7] is above 53.3 µM; in test [8], above 80.6 µM; in test [9], above 100 µM; in test [10] it was above 100 µM; in test [11], 38.7 µM; in [12], above 100 µM.
